Results: US10780094B2, “Use of carbonic anhydrase inhibitors for treatment of neurological and psychiatric disorders” (New York University, priority 2016, dated 2020)

How the values were obtained:
SH-SY5Y cells = assay: Cell Death ELISAplus, Aβ-induced apoptosis (fragmented nucleosomes); type: cell-based, human; details: for apoptosis in response to Aβ: Example 2/3, Aβ42 challenge, FIG. 17A, 21
Description: The extent of apoptosis caused by Aβ in the presence or absence of MTZ was assessed by quantitation of nucleosome formation using Cell Death ELISA^plus (Roche Applied Science, Indianapolis, Ind.). Briefly, after incubation with the peptides, plates were centrifuged in a Beckman J-6B centrifuge (10 min; 1,000 rpm), cells lysed, and DNA-histone complexes (nucleosomes) quantitated by Cell Death ELISA, as previously described (Fossati et al., 2010).
20.000 cells per well were plated on 24-wells plates. The day after, cells were treated with peptides and/or drugs, following the experimental conditions.
20,000 cells per well were plated on 24-wells plates. The day after, cells were treated with peptides and/or drugs, following the experimental conditions.

[1] = test system: mitochondria isolated from SH-SY5Y neuronal cells; assay: Mitochondrial H2O2 production (Amplex Red) after Aβ challenge; type: cell-based, human; details: for Aβ-induced H2O2 production: Example 2, both drugs at the proposed concentrations
Description: Production of H2O2 from isolated mitochondria was measured using Amplex Red Hydrogen Peroxide/Peroxidase Assay (Life Technologies). Cells were treated with Aβ peptides, in the presence or absence of MTZ. After 16 hours of treatment, the mitochondrial fraction was separated from nuclear and cytoplasmic fractions as previously described (Fossati et al., 2013). Protein concentration in the mitochondrial fraction was measured by BCA assay (Thermo Scientific, Rockford, Ill.), in order to include the same amount of mitochondria in each sample. Functional mitochondrial fractions were distributed in a 96 well plate with Reaction Buffer and Amplex Red solution following the manufacturer's specifications. The plate was incubated in the dark at room temperature for 30 minutes before colorimetric evaluation of the Amplex Red reaction at 560 nm.
Cells were plated on 6-wells plates and treated with the peptides and/or drugs for the experimental times. Plates were centrifuged for 10 min at 1.000 RPM and washed twice with PBS 1×. After that, 500 μL of homogenization buffer (75 mM sucrose, 225 mM mannitol, 5 mM Tris-HCl pH=7.4, 1 mM PMSF and protease inhibitor cocktail) was added. Cells were scraped in this buffer, collected in glass tubes and grinded exactly 80 times with a pellet pestle, keeping everything always on ice. Cells were then centrifuged at 2.800 RPM for 5 min at 4° C. The supernatant was collected and centrifuged again at 2.800 RPM for 5 min at 4° C. The supernatant was again collected and centrifuged at 10.500 RPM for another 5 min at 4° C. After this, the supernatant was discarded and the pellet was re-suspended in 100 μL of homogenization buffer. The samples were centrifuged again at 10.500 RPM for 10 min at 4° C., the supernatant was discarded and the pellets (mitochondrial fractions) were re-suspended on 50 μL of homogenization buffer. A protein concentration assay on mitochondrial protein was performed, using the Pierce BCA Protein Assay Kit (ThermoFisher, Waltham, Mass., US) and following the instructions provided by the manufacturer. After that, mitochondrial fractions containing equal amounts of mitochondrial proteins were placed on 96-wells microplate absorbance microtiter (ThermoFisher, Waltham, Mass., US) and the AmplexRed assay was ran, following the instructions provided by the manufacturer. Absorbance was measured by using a FlexStation (Molecular Devices, Sunnyvalem Calif., US).

D3 cells = assay: Mitochondrial and cytoplasmic calcium assay (Rhod-2 AM, Fluo-4 AM); type: cell-based, human; details: highest doses; 45 minutes
Description: This assay was performed as published in [60]. Briefly, cells were plated on 25 mm optical borosilicate poly-L-lysine-coated sterile glass covers, (ThermoFisher, Waltham, Mass., US) at a 70% confluence. 24 hours later, cells were loaded with 5 μM Rhod-2 AM or 2.5 μM Fluo-4 AM on HBSS for 45 minutes. Then, cells were washed twice with HBSS and incubated for another additional 15 minutes on fresh HBSS, without Rhod-2 AM or Fluo-4 AM. After that, HBSS was replaced again by fresh HBSS, glasses were mounted on microscopy chambers and experiments were conducted, after adding the pre-aggregated peptides and/or the drugs. Cells were mounted on Sykes-Moores chambers (BellCo, Vineland, N.J., US) and imaged every 15 seconds for 45 min, at a 20× magnification, using a Nikon fluorescent microscope (Chiyoda, Tokyo, Japan). Images were processed using NIS-Elements and ImageJ software. Due to the rapidity of this experiment, the peptide was pre-aggregated as described above to obtain oligomers before being added to the cells.

[2] = test system: SH-SY5Y and D3 cell cultures; assay: Intracellular pH measurement (pHrodo); type: cell-based, human; details: MTZ 100 and 300 μM, AZT 30 and 100 μM; 3 and 12 hours; with and without peptide
Description: Cells were plated on 96-wells microplate fluorescence microtiter (ThermoFisher, Waltham, Mass., US). The day after, cells were treated with the different drugs and/or peptides. After this, intracellular pH measurement was performed by using the pHrodo red AM kit, following the indications provided by the manufacturer.

TgSwDI mice = assay: Contextual fear conditioning; type: in vivo, mouse; details: short-term treatment (3 months)
EC and SH-SY5Y cultures = assay: Immunofluorescence deconvolution microscopy of CytC and MitoTracker (mitochondrial membrane potential); type: cell-based, human; details: for loss of mitochondrial membrane potential (red dye internalization): Example 3, cells treated with Aβ
Description: Both EC and SH-SY5Y cells were plated on to glass chamber slides (Thermo Fisher Scientific), pre-coated with either collagen-I or poly-d-lysine (for ECs and SH-SY5Y cells respectively). After seeding, cells were allowed to attach for 1 day before treatment with the different peptides for 1-3 days, as above. Cells were washed with ice-cold PBS, fixed with 4% paraformaldehyde (10 min at room temperature) and blocked for 1 h with 20 mg/ml BSA in PBST (PBS containing 0.3% Triton X-100). Slides were further incubated with mouse anti-CytC monoclonal antibody (BD Biosciences; 1:200 dilution in PBST containing 5 mg/ml BSA; 2 h at room temperature) followed by Alexa Fluor® 488-conjugated anti-(mouse IgG) antibody (Invitrogen; 1:200 in PBST with 5 mg/ml BSA; 1 h at room temperature). Fluorescence signals were visualized in a Nikon Eclipse E 800 deconvolution microscope using NIS Elements software (Nikon Instruments) for image acquisition and processing, and AutoQuant (Media Cybernetics) for 3D deconvolution. The effect of methazolamide in preventing the Aβ-induced release of CytC from the mitochondria into the cytoplasm was evaluated in EC and SH-SY5Y cultures. After peptide incubation in the presence and absence of methazolamide (Sigma), release of CytC was visualized by immunofluorescence microscopy and WB analysis, and corroborated by confocal assessment of CytC in conjunction with the mitochondrial marker MitoTracker®.

[3] = Aβ-Iowa(isoD), 1 day, methazolamide starting at 100 μM

Structure (SMILES)	apoptosis in response to Aβ (SH-SY5Y cells)	Aβ-induced H2O2 production [1]	Aβ-induced decrease in mitochondrial and cytoplasmic Ca2+ (D3 cells)	intracellular pH values [2]	increase of freezing in contextual fear conditioning (TgSwDI mice)	loss of mitochondrial membrane potential (red dye internalization) (EC and SH-SY5Y cultures)	DNA fragmentation after Aβ challenge (SH-SY5Y cells; 100 μM MTZ, Aβ42 10 μM or Aβ40-Q22 50 μM, 1 day)	Aβ-mediated increase in fragmented nucleosomes (SH-SY5Y cells; 300 μM MTZ, Aβ42 10 μM or Aβ40-Q22 50 μM, 1 day)	Aβ-induced increase in H2O2 production by isolated mitochondria ([1]; Example 1, Aβ with MTZ)	H2O2 production, drug alone ([1]; MTZ alone, untreated cells)	mitochondrial membrane potential (MitoTracker localization) (EC and SH-SY5Y cultures; [3])	subcellular localization of CytC (EC and SH-SY5Y cultures; [3])
CC(=O)Nc1nnc(S(N)(=O)=O)s1 [ATZ, acetazolamide]	prevented	completely reverted	counteract the effect exerted by the peptide	did not show any significant changes	normalizing effect	prevented	–	–	–	–	–	–
CC(=O)/N=c1/sc(S(N)(=O)=O)nn1C [MTZ, methazolamide]	prevented	completely reverted	counteract the effect exerted by the peptide	did not show any significant changes	normalizing effect	prevented	significantly effective at reducing DNA fragmentation	completely prevented	completely reverted	did not have any effect	restored the mitochondrial membrane potential	preserved the subcellular localization of CytC
